{"source": "patent US6355799B1", "about": "“Substituted benzene compounds, process for their preparation, and herbicidal and defoliant compositions containing them” (ISK Americas Incorporated, priority 1997, dated 2002)", "assay_type_in_all_cases": "in vivo", "key": {"[1]": {"test_system": "redroot pigweed (Amaranthus retroflexus, AMARE)", "experiment": "Pre-emerge test, greenhouse herbicide activity screening", "settings": "phytotoxicity rating 0-100, 14 days after application", "procedure,_shortened": "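Plants grown in 10 cm pots of sandy loam mix received acetone-dissolved compounds through a moving flat-fan nozzle. Doses ranged from 15 to 1000 g ai/ha. Pre-emerge pots were seeded one day earlier, post-emerge pots 8–21 days earlier. Fourteen days on, each pot was graded 0–100 for damage.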"}, "[2]": {"test_system": "barnyardgrass (Echinochloa crus-galli, ECHCG)", "experiment": "Pre-emerge test, greenhouse herbicide activity screening", "settings": "phytotoxicity rating 0-100, 14 days after application", "procedure,_shortened": "(§1)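 Applied at 15–1000 g ai/ha from acetone in 187 l/ha spray volume. Post-emergence applications included 0.25% v/v non-ionic surfactant and reached plants sown 8–21 days before. Pre-emergence applications were incorporated by surface watering. Efficacy or crop damage was rated on a 0–100 scale after 14 days.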"}, "[3]": {"test_system": "common ragweed (Ambrosia artemisizfolia L., AMBEL)", "experiment": "Pre-emerge test, greenhouse herbicide activity screening", "settings": "phytotoxicity rating 0-100, 14 days after application", "procedure,_shortened": "as §1"}, "[4]": {"test_system": "green foxtail (Setaria viridis, SETVI)", "experiment": "Pre-emerge test, greenhouse herbicide activity screening", "settings": "phytotoxicity rating 0-100, 14 days after application", "procedure,_shortened": "as §1"}, "[5]": {"test_system": "ivyleaf morningglory (Ipomoea hederacea, IPOHE)", "experiment": "Pre-emerge test, greenhouse herbicide activity screening", "settings": "phytotoxicity rating 0-100, 14 days after application", "procedure,_shortened": "as §1"}, "[6]": {"test_system": "johnsongrass (Sorghum halepense, SORHA)", "experiment": "Pre-emerge test, greenhouse herbicide activity screening", "settings": "phytotoxicity rating 0-100, 14 days after application", "procedure,_shortened": "as §1"}, "[7]": {"test_system": "lambsquarters (Chenopodium album, CHEAL)", "experiment": "Pre-emerge test, greenhouse herbicide activity screening", "settings": "phytotoxicity rating 0-100, 14 days after application", "procedure,_shortened": "as §1"}, "[8]": {"test_system": "large crabgrass (Digitaria sanguinalis, DIGSA)", "experiment": "Pre-emerge test, greenhouse herbicide activity screening", "settings": "phytotoxicity rating 0-100, 14 days after application", "procedure,_shortened": "as §1"}, "[9]": {"test_system": "sicklepod (Cassia obtusifolia, CASOB)", "experiment": "Pre-emerge test, greenhouse herbicide activity screening", "settings": "phytotoxicity rating 0-100, 14 days after application", "procedure,_shortened": "as §1"}, "[10]": {"test_system": "velvetleaf (Abutilon theophrasti, ABUTH)", "experiment": "Pre-emerge test, greenhouse herbicide activity screening", "settings": "phytotoxicity rating 0-100, 14 days after application", "procedure,_shortened": "as §1"}, "[11]": {"test_system": "field corn (Zea mays L., var. Dekalb 535, CORN)", "experiment": "Pre-emerge test, crop safety", "settings": "crop damage rating 0-100, 14 days after application", "procedure,_shortened": "(§2)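 Rating: 0–100 visual injury, 14 DAA. Application: acetone, 187 l/ha, 15–1000 g ai/ha, flat-fan track sprayer with nozzle 40–45 cm above soil or canopy. Post-emerge runs used 0.25% v/v surfactant on 2–3 leaf plants.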"}, "[12]": {"test_system": "upland rice (Oryza sp., var. Tebonnet, RICE)", "experiment": "Pre-emerge test, crop safety", "settings": "crop damage rating 0-100, 14 days after application", "procedure,_shortened": "as §2"}, "[13]": {"test_system": "barnyardgrass (Echinochloa crus-galli, ECHCG)", "experiment": "Post-emerge test, greenhouse herbicide activity screening", "settings": "post-emerge, 14 days after application, rating scale 0-100", "procedure,_shortened": "as §2"}, "[14]": {"test_system": "green foxtail (Setaria viridis, SETVI)", "experiment": "Post-emerge test, greenhouse herbicide activity screening", "settings": "post-emerge, 14 days after application, rating scale 0-100", "procedure,_shortened": "as §2"}, "[15]": {"test_system": "ivyleaf morningglory (Ipomoea hederacea, IPOHE)", "experiment": "Post-emerge test, greenhouse herbicide activity screening", "settings": "post-emerge, 14 days after application, rating scale 0-100", "procedure,_shortened": "as §2"}, "[16]": {"test_system": "johnsongrass (Sorghum halepense, SORHA)", "experiment": "Post-emerge test, greenhouse herbicide activity screening", "settings": "post-emerge, 14 days after application, rating scale 0-100", "procedure,_shortened": "as §2"}, "[17]": {"test_system": "lambsquarters (Chenopodium album, CHEAL)", "experiment": "Post-emerge test, greenhouse herbicide activity screening", "settings": "post-emerge, 14 days after application, rating scale 0-100", "procedure,_shortened": "as §2"}, "[18]": {"test_system": "large crabgrass (Digitaria sanguinalis, DIGSA)", "experiment": "Post-emerge test, greenhouse herbicide activity screening", "settings": "post-emerge, 14 days after application, rating scale 0-100", "procedure,_shortened": "as §2"}, "[19]": {"test_system": "redroot pigweed (Amaranthus retroflexus, AMARE)", "experiment": "Post-emerge test, greenhouse herbicide activity screening", "settings": "post-emerge, 14 days after application", "procedure,_shortened": "as §2"}, "[20]": {"test_system": "sicklepod (Cassia obtusifolia, CASOB)", "experiment": "Post-emerge test, greenhouse herbicide activity screening", "settings": "post-emerge, 14 days after application, rating scale 0-100", "procedure,_shortened": "as §2"}, "[21]": {"test_system": "velvetleaf (Abutilon theophrasti, ABUTH)", "experiment": "Post-emerge test, greenhouse herbicide activity screening", "settings": "post-emerge, 14 days after application, rating scale 0-100", "procedure,_shortened": "as §2"}, "[22]": {"test_system": "field corn (Zea mays L., var. Dekalb 535, CORN)", "experiment": "Post-emerge test, crop safety", "settings": "post-emerge, 14 days after application, rating scale 0-100", "procedure,_shortened": "as §1"}, "[23]": {"test_system": "upland rice (Oryza sp., var. Tebonnet, RICE)", "experiment": "Post-emerge test, crop safety", "settings": "post-emerge, 14 days after application, rating scale 0-100", "procedure,_shortened": "as §1"}}, "data": [{"smiles": "CC(C)Oc1c(Cl)cc(F)c(-n2c(=O)cc(C(F)(F)F)n(C)c2=O)c1NC(=O)c1ccc2ccccc2c1", "note": "[2-197]", "values": [{"measurement": "Pre-emerge Herbicidal Activity AMARE", "setting": "[1]; 63 g ai/ha", "result": 100}, {"measurement": "Pre-emerge Herbicidal Activity AMARE", "setting": "[1]; 250 g ai/ha", "result": 100}, {"measurement": "Pre-emerge Herbicidal Activity ECHCG", "setting": "[2]; 63 g ai/ha", "result": 0}, {"measurement": "Pre-emerge Herbicidal Activity ECHCG", "setting": "[2]; 250 g ai/ha", "result": 50}, {"measurement": "Pre-emerge Herbicidal Activity AMBEL", "setting": "[3]; 63 g ai/ha", "result": 100}, {"measurement": "Pre-emerge Herbicidal Activity AMBEL", "setting": "[3]; 250 g ai/ha", "result": 100}, {"measurement": "Pre-emerge Herbicidal Activity SETVI", "setting": "[4]; 63 g ai/ha", "result": 50}, {"measurement": "Pre-emerge Herbicidal Activity SETVI", "setting": "[4]; 250 g ai/ha", "result": 100}, {"measurement": "Pre-emerge Herbicidal Activity IPOHE", "setting": "[5]; 63 g ai/ha", "result": 30}, {"measurement": "Pre-emerge Herbicidal Activity IPOHE", "setting": "[5]; 250 g ai/ha", "result": 50}, {"measurement": "Pre-emerge Herbicidal Activity SORHA", "setting": "[6]; 63 g ai/ha", "result": 0}, {"measurement": "Pre-emerge Herbicidal Activity SORHA", "setting": "[6]; 250 g ai/ha", "result": 20}, {"measurement": "Pre-emerge Herbicidal Activity CHEAL", "setting": "[7]; 63 g ai/ha", "result": 100}, {"measurement": "Pre-emerge Herbicidal Activity CHEAL", "setting": "[7]; 250 g ai/ha", "result": 100}, {"measurement": "Pre-emerge Herbicidal Activity DIGSA", "setting": "[8]; 63 g ai/ha", "result": 80}, {"measurement": "Pre-emerge Herbicidal Activity DIGSA", "setting": "[8]; 250 g ai/ha", "result": 100}, {"measurement": "Pre-emerge Herbicidal Activity CASOB", "setting": "[9]; 63 g ai/ha", "result": 0}, {"measurement": "Pre-emerge Herbicidal Activity CASOB", "setting": "[9]; 250 g ai/ha", "result": 50}, {"measurement": "Pre-emerge Herbicidal Activity ABUTH", "setting": "[10]; 63 g ai/ha", "result": 90}, {"measurement": "Pre-emerge Herbicidal Activity ABUTH", "setting": "[10]; 250 g ai/ha", "result": 100}, {"measurement": "Pre-emerge Herbicidal Activity CORN", "setting": "[11]; 63 g ai/ha", "result": 0}, {"measurement": "Pre-emerge Herbicidal Activity CORN", "setting": "[11]; 250 g ai/ha", "result": 0}, {"measurement": "Pre-emerge Herbicidal Activity RICE", "setting": "[12]; 63 g ai/ha", "result": 30}, {"measurement": "Pre-emerge Herbicidal Activity RICE", "setting": "[12]; 250 g ai/ha", "result": 80}, {"measurement": "phytotoxicity rating ECHCG", "setting": "[13]; 63 g ai/ha", "result": 0}, {"measurement": "phytotoxicity rating ECHCG", "setting": "[13]; 250 g ai/ha", "result": 20}, {"measurement": "phytotoxicity rating SETVI", "setting": "[14]; 63 g ai/ha", "result": 10}, {"measurement": "phytotoxicity rating SETVI", "setting": "[14]; 250 g ai/ha", "result": 20}, {"measurement": "phytotoxicity rating IPOHE", "setting": "[15]; 63 g ai/ha", "result": 100}, {"measurement": "phytotoxicity rating IPOHE", "setting": "[15]; 250 g ai/ha", "result": 90}, {"measurement": "phytotoxicity rating SORHA", "setting": "[16]; 63 g ai/ha", "result": 0}, {"measurement": "phytotoxicity rating SORHA", "setting": "[16]; 250 g ai/ha", "result": 50}, {"measurement": "phytotoxicity rating CHEAL", "setting": "[17]; 63 g ai/ha", "result": 100}, {"measurement": "phytotoxicity rating CHEAL", "setting": "[17]; 250 g ai/ha", "result": 100}, {"measurement": "phytotoxicity rating DIGSA", "setting": "[18]; 63 g ai/ha", "result": 10}, {"measurement": "phytotoxicity rating DIGSA", "setting": "[18]; 250 g ai/ha", "result": 10}, {"measurement": "phytotoxicity rating AMARE", "setting": "[19]; 63 g ai/ha, rating scale 0-100 (0 no damage, 100 complete death)", "result": 100}, {"measurement": "phytotoxicity rating AMARE", "setting": "[19]; 250 g ai/ha, rating scale 0-100", "result": 100}, {"measurement": "phytotoxicity rating CASOB", "setting": "[20]; 63 g ai/ha", "result": 80}, {"measurement": "phytotoxicity rating CASOB", "setting": "[20]; 250 g ai/ha", "result": 80}, {"measurement": "phytotoxicity rating ABUTH", "setting": "[21]; 63 g ai/ha", "result": 100}, {"measurement": "phytotoxicity rating ABUTH", "setting": "[21]; 250 g ai/ha", "result": 100}, {"measurement": "phytotoxicity rating CORN (crop damage)", "setting": "[22]; 63 g ai/ha", "result": 10}, {"measurement": "phytotoxicity rating CORN (crop damage)", "setting": "[22]; 250 g ai/ha", "result": 10}, {"measurement": "phytotoxicity rating RICE (crop damage)", "setting": "[23]; 63 g ai/ha", "result": 20}, {"measurement": "phytotoxicity rating RICE (crop damage)", "setting": "[23]; 250 g ai/ha", "result": 30}]}]}
